Assay type in all cases: functional, cell-based
One assay deals with HCT-8. Description: Cytotoxicity against human HCT8 cells by MTT assay. (In general: Tetrazolium dyes change colour on reduction, which living cells bring about.)
The test system of the next assay is Bel-7402. Description: Cytotoxicity against human Bel7402 cells by MTT assay.
Another assay has as its system A549. As to the kind of experiment: Cytotoxicity against human A549 cells by MTT assay.
Assay [1] in a line: Cytotoxicity against human […] cells by MTT assay.
For another assay, the system named is A2780. Description: Cytotoxicity against human A2780 cells by MTT assay.

The record followed here is ChEMBL document CHEMBL1921758, “Indole alkaloids and quassinoids from the stems of Brucea mollis” (J Nat Prod, 2011).

Structures are written as SMILES. Some results are limits rather than exact numbers.

For orientation: IC50 means the concentration that gives 50% inhibition. On to `CC1=CC(=O)O[C@H]1[C@@]1(C)C[C@H]2OC(=O)[C@H](O)[C@H]3[C@@H](CO)[C@@H](O)[C@H](O)[C@H]1[C@]32C` (relative stereo), for which the half-maximal inhibitory concentration (IC50) (in the assay with HCT-8; in the assay on Bel-7402; in the assay on A549; in assay [1]; in the assay with A2780) was over 10 µM each time.

Regarding `CC(C)(O)[C@@H](O)Cc1cn([C@@H]2O[C@H](CO)[C@@H](O)[C@H](O)[C@H]2O)c2ccccc12` [BRUCEOLLINE F], the half-maximal inhibitory concentration (IC50) (in the assay on HCT-8; with Bel-7402; in the assay with A549; in assay [1]; in the assay on A2780) was over 10 µM throughout.

On to `CC(C)[C@@H](O)C(=O)c1c[nH]c2ccccc12` [BRUCEOLLINE L], for which the IC50 (in the assay with HCT-8; in the assay on Bel-7402; in the assay with A549; in assay [1]; in the assay on A2780) was over 10 µM throughout.

In the case of `CC1=CC(=O)[C@@H](O)[C@]2(C)[C@H]3[C@@H](O)[C@H](O)[C@H](CO[C@@H]4O[C@H](CO)[C@@H](O)[C@H](O)[C@H]4O)[C@@H]4[C@@H](O)C(=O)O[C@H](C[C@@H]12)[C@@]43C` [YADANZIOLIDE U], the half-maximal inhibitory concentration (IC50) (in the assay with HCT-8; with Bel-7402; with A549; in assay [1]; with A2780) was over 10 µM in each case.

As for `CC(C)(O)[C@@H](O)C[C@]1(O)C(=O)N([C@@H]2O[C@H](CO)[C@@H](O)[C@H](O)[C@H]2O)c2ccccc21` [BRUCEOLLINE N], the 50% inhibitory concentration (IC50) (with HCT-8; with Bel-7402; in the assay with A549; in assay [1]; with A2780) was over 10 µM in each case.

With `CC1(C)C(=O)C(=O)c2c1[nH]c1ccccc21` [BRUCEOLLINE E], the IC50 (with HCT-8; in the assay with Bel-7402; in the assay with A549; in assay [1]; in the assay with A2780) was over 10 µM throughout.

On to `CC1=CC(=O)[C@@H](O)[C@@]2(C)[C@H]1[C@@H](O)[C@H]1OC(=O)[C@H](O)[C@]3(O)[C@]14CO[C@]3(CO)[C@@H](O)[C@H](O)[C@H]24` [YADANZIOLIDE B], for which the half-maximal inhibitory concentration (IC50) was 3.33 µM in the assay with HCT-8; 4.24 µM with Bel-7402; 3.8 µM in the assay on A549; 4.85 µM in assay [1]; over 10 µM in the assay with A2780.

Take `CC(C)(O)C(=O)Cc1cn([C@@H]2O[C@H](CO)[C@@H](O)[C@H](O)[C@H]2O)c2ccccc12` [BRUCEOLLINE M]: the IC50 (in the assay with HCT-8; with Bel-7402; with A549; in assay [1]; in the assay on A2780) was over 10 µM in each case.

Consider `CC1(C)C(=O)C(=O)c2c1[nH]c1cc(O)ccc21` [BRUCEOLLINE H], for which the IC50 (with HCT-8; with Bel-7402; in the assay on A549; in assay [1]; in the assay with A2780) was over 10 µM each time.

`CC1(C)c2[nH]c3cc(O)ccc3c2C(=O)[C@@H]1O` [BRUCEOLLINE I]: the half-inhibitory concentration (IC50) (in the assay on HCT-8; with Bel-7402; with A549; in assay [1]; in the assay with A2780) was over 10 µM throughout.

Consider `CC1=CC(=O)[C@@H](O)[C@]2(C)[C@H]3[C@@H](O)[C@H](O)[C@H](CO)[C@@H]4[C@@H](O)C(=O)O[C@H](C[C@@H]12)[C@@]43C` (relative stereo), for which the IC50 with HCT-8 is 3.36 µM; in the assay on Bel-7402, 4.4 µM; with A549 it was over 10 µM; in assay [1], 3 µM; in the assay on A2780, over 10 µM.

Regarding `CC1=CC(=O)[C@@H](O)[C@]2(C)[C@H]3[C@@H](O)[C@H](O)[C@]4(C)OC[C@@]35[C@@H](C[C@@H]12)OC(=O)[C@H](O)[C@]54O` [BRUCEINE D], the IC50 with HCT-8 was 5.81 µM; with Bel-7402, 3.51 µM; with A549, over 10 µM; in assay [1] it was 3.8 µM; in the assay on A2780, over 10 µM.

On to `CC1(C)c2[nH]c3ccccc3c2C(=O)[C@@H]1O` [BRUCEOLLINE J], for which the IC50 (with HCT-8; in the assay on Bel-7402; in the assay with A549; in assay [1]; in the assay on A2780) was over 10 µM throughout.

Turning to `CC1(C)c2[nH]c3ccccc3c2C(=O)[C@@H]1O[C@@H]1O[C@H](CO)[C@@H](O)[C@H](O)[C@H]1O` [BRUCEOLLINE K], the concentration for half-maximal inhibition (IC50) (with HCT-8; in the assay with Bel-7402; in the assay with A549; in assay [1]; in the assay with A2780) was over 10 µM each time.

Take `COc1cccc2c1C(=O)c1c(O)c3c(c(O)c1C2=O)C[C@@](O)(C(=O)CO)C[C@@H]3O[C@H]1C[C@H](N)[C@H](O)[C@H](C)O1` [DOXORUBICIN]: the half-maximal inhibitory concentration (IC50) was 0.42 µM with HCT-8; 0.53 µM in the assay with Bel-7402; 0.72 µM in the assay with A549; 0.98 µM in assay [1]; 0.33 µM with A2780.
